A word on the inhibition: it is the drop in the measured response relative to a control, in per cent.

For one assay, the target named is T1, 5HT-uptake (Rattus norvegicus, UniProt P31652).
T1 construct: synaptosomes were freshly isolated from areas of rats' brains
Briefly: biochemical. The note with it: for inhibition at 10 µM: read-out: 5HT-uptake [10 μM], % inhibition.

Another assay concerns the target NA-uptake (Rattus norvegicus, UniProt Q63380). Briefly: biochemical. The following applies: for inhibition at 10 µM: read-out: NA-uptake [10 μM], % inhibition.

T1 sequence (P31652 whole entry): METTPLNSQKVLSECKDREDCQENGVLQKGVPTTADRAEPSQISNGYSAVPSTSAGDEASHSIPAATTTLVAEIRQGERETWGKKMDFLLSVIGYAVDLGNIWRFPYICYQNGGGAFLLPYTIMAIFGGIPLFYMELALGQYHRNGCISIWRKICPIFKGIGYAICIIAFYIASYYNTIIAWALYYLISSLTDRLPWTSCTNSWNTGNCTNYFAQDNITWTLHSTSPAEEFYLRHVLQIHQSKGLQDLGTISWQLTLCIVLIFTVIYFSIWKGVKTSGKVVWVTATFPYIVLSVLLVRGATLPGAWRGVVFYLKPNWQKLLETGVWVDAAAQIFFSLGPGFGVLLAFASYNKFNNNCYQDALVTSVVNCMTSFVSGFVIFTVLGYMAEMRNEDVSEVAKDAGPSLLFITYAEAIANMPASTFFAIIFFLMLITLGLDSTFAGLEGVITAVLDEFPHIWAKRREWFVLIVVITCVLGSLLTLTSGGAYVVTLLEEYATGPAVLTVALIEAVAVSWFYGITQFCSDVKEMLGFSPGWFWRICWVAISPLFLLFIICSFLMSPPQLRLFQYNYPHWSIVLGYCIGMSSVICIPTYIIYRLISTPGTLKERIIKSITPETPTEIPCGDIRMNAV
Sequence of NA-uptake (Q63380 1-617): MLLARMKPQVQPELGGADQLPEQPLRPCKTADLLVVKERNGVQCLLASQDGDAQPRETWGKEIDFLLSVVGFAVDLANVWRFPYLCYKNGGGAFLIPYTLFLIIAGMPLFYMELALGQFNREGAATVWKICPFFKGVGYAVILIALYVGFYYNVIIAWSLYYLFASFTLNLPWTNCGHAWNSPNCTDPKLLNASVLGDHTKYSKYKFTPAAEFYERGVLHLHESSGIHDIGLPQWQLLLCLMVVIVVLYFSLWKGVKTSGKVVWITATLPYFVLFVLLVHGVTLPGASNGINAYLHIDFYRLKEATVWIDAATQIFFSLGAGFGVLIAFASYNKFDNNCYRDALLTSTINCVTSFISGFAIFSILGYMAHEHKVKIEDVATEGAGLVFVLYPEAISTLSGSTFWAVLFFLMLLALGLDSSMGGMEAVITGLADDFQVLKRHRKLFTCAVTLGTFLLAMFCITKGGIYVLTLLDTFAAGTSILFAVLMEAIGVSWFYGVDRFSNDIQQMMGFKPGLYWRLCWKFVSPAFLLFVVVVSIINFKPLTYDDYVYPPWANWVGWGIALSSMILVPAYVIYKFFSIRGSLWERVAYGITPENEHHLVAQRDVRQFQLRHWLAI

In the case of `Cc1ccc(CC2(N(C)C)CCC(NC(=O)CCC(=O)N(C)CCc3c[nH]c4ccccc34)CC2)cc1` (stereo not drawn) [Example 36, N-[4-dimethylamino-4-(4-methyl-benzyl)-cyclohexyl]-N′-[2-(1H-indol-3-yl)-ethyl]-N′-methyl-succinamide], the inhibition at 10 µM on 5HT-uptake is 96%; at NA-uptake, 93%.
For `C=CCN(C)C(=O)CCC(=O)NC1CCC(Cc2cccc(Cl)c2)(N(C)C)CC1` (stereo not drawn) [Example 43, N-allyl-N′-[4-(3-chloro-benzyl)-4-dimethylamino-cyclohexyl]-N-methyl-succinamide], the figures for the inhibition at 10 µM on 5HT-uptake and on NA-uptake were 98% and 96%, respectively.
Take `Cc1cccc(CC2(N(C)C)CCC(NC(=O)CCC(=O)N3CCC(Cc4ccccc4)CC3)CC2)c1` (stereo not drawn) [Example 103, 4-(4-benzyl-piperidin-1-yl)-N-[4-dimethylamino-4-(3-methyl-benzyl)-cyclohexyl]-4-oxo-butyramide]: the inhibition at 10 µM on 5HT-uptake was 94%; at NA-uptake it was 108%.
For `CN(C)C1(Cc2ccccc2)CCC(NC(=O)CCCC(=O)N2CCN(C3CCCCCC3)CC2)CC1` (stereo not drawn) [Example 62, 5-(4-cycloheptyl-piperazin-1-yl)-5-oxo-valeric acid (4-benzyl-4-dimethylamino-cyclohexyl)-amide], the inhibition at 10 µM at 5HT-uptake is 100%; on NA-uptake it was 86%.
Consider `COc1ccc(F)c(CN2CCN(C(=O)CCCC(=O)NC3CCC(Cc4ccccc4)(N(C)C)CC3)CC2)c1` (stereo not drawn) [Example 25, 5-[4-(2-fluoro-5-methoxy-benzyl)-piperazin-1-yl]-5-oxo-valeric acid (4-benzyl-4-dimethylamino-cyclohexyl)-amide], for which the inhibition at 10 µM at 5HT-uptake amounted to 97%; at NA-uptake it was 95%.
Regarding `CC(=O)c1ccc(N2CCN(C(=O)CCC(=O)NC3CCC(Cc4ccc(C)cc4)(N(C)C)CC3)CC2)cc1` (stereo not drawn) [Example 27, 4-[4-(4-Acetyl-phenyl)-piperazin-1-yl]-N-[4-dimethylamino-4-(4-methyl-benzyl)-cyclohexyl]-4-oxo-butyramide], the inhibition at 10 µM at 5HT-uptake is 95%; at NA-uptake, 92%.
The matching figures for `CN(C)C1(Cc2ccc(Cl)cc2)CCC(NC(=O)CCC(=O)N2CCC3(CC2)OCCO3)CC1` (stereo not drawn) [Example 65, N-[4-(4-chloro-benzyl)-4-dimethylamino-cyclohexyl]-4-(1,4-dioxa-8-aza-spiro[4.5]dec-8-yl)-4-oxo-butyramide]: 92% and 84%.
With `Cc1ccc(CC2(N(C)C)CCC(NC(=O)CCC(=O)NC3CCCc4ccccc43)CC2)cc1` (stereo not drawn) [Example 126, N-[4-dimethylamino-4-(4-methyl-benzyl)-cyclohexyl]-N′-(1,2,3,4-tetrahydro-naphthalen-1-yl)-succinamide], the inhibition at 10 µM was 93% on 5HT-uptake and 84% at NA-uptake.
In the case of `Cc1ccc(CC2(N(C)C)CCC(NC(=O)CCC(=O)N3CCN(c4ccccn4)CC3)CC2)cc1` (stereo not drawn) [Example 21, N-[4-dimethylamino-4-(4-methyl-benzyl)-cyclohexyl]-4-oxo-4-(4-pyridin-2-yl-piperazin-1-yl)-butyramide], the inhibition at 10 µM came to 95% on 5HT-uptake and 83% at NA-uptake.
Take `CN(C)C1(Cc2ccc(Cl)cc2)CCC(NC(=O)CCC(=O)NCc2cccc3ccccc23)CC1` (stereo not drawn) [Example 34, N-[4-(4-chloro-benzyl)-4-dimethylamino-cyclohexyl]-N′-naphthalen-1-ylmethyl-succinamide]: the inhibition at 10 µM at 5HT-uptake was 97%; at NA-uptake it was 87%.
`CN(C)C1(Cc2cccc(Cl)c2)CCC(NC(=O)CCC(=O)NCCc2ccccn2)CC1` (stereo not drawn) [Example 12, N-[4-(3-chloro-benzyl)-4-dimethylamino-cyclohexyl]-N′-(2-pyridin-2-yl-ethyl)-succinamide]: the inhibition at 10 µM on 5HT-uptake came to 92%; on NA-uptake, 95%.
`Cc1ccc(CC2(N(C)C)CCC(NC(=O)CCC(=O)N3CCN(c4ccccc4C)CC3)CC2)cc1` (stereo not drawn) [Example 94, N-[4-dimethylamino-4-(4-methyl-benzyl)-cyclohexyl]-4-oxo-4-(4-o-tolyl-piperazin-1-yl)-butyramide]: the inhibition at 10 µM on 5HT-uptake stood at 92%; at NA-uptake, 86%.
Regarding `Cc1ccc(CC2(N(C)C)CCC(NC(=O)CCC(=O)N3CCN(c4cccc(C)c4)CC3)CC2)cc1` (stereo not drawn) [Example 6, N-[4-dimethylamino-4-(4-methyl-benzyl)-cyclohexyl]-4-oxo-4-(4-m-tolyl-piperazin-1-yl)-butyramide], the inhibition at 10 µM on 5HT-uptake worked out at 96%; on NA-uptake, 91%.
The matching figures for `Cc1ccc(CC2(N(C)C)CCC(NC(=O)CCC(=O)N3CCN(C(=O)OC(C)(C)C)CC3)CC2)cc1` (stereo not drawn) [Example 28, 4-{3-[4-dimethylamino-4-(4-methyl-benzyl)-cyclohexylcarbamoyl]-propionyl}-piperazin-1-carboxylic acid-tert-butylester]: 92% and 81%.
Consider `COc1ccc(CCN(C)C(=O)CCC(=O)NC2CCC(Cc3cccc(C)c3)(N(C)C)CC2)cc1OC` (stereo not drawn) [Example 71, N-[2-(3,4-dimethoxy-phenyl)-ethyl]-N′-[4-dimethylamino-4-(3-methyl-benzyl)-cyclohexyl]-N-methyl-succinamide], for which the figures for the inhibition at 10 µM at 5HT-uptake and on NA-uptake were 92% and 94%, respectively.
For `CN(C)C1(Cc2ccc(Cl)cc2)CCC(NC(=O)CCC(=O)N2CCSCC2)CC1` (stereo not drawn) [Example 13, N-[4-(4-chloro-benzyl)-4-dimethylamino-cyclohexyl]-4-oxo-4-thiomorpholin-4-yl-butyramide], the inhibition at 10 µM on 5HT-uptake worked out at 92%; on NA-uptake, 72%.
Turning to `Cc1cccc(CC2(N(C)C)CCC(NC(=O)CCC(=O)N3CCC(C)CC3)CC2)c1` (stereo not drawn) [Example 20, N-[4-dimethylamino-4-(3-methyl-benzyl)-cyclohexyl]-4-(4-methyl-piperidin-1-yl)-4-oxo-butyramide], the figures for the inhibition at 10 µM on 5HT-uptake and at NA-uptake were 92% and 90%, respectively.
Take `CN(C)C1(Cc2cccc(Cl)c2)CCC(NC(=O)CCC(=O)NCCc2c[nH]c3ccccc23)CC1` (stereo not drawn) [Example 99, N-[4-(3-chloro-benzyl)-4-dimethylamino-cyclohexyl]-N′-[2-(1H-indol-3-yl)-ethyl]-succinamicle]: at 5HT-uptake, the “5HT-uptake [10 μM], % inhibition” value was 94%. Moreover, the “NA-uptake [10 μM], % inhibition” value at NA-uptake came to 99%.
For the compound `CCOP(=O)(Cc1ccc(NC(=O)CCC(=O)NC2CCC(Cc3cccc(Cl)c3)(N(C)C)CC2)cc1)OCC` (stereo not drawn) [Example 37, (4-{3-[4-(3-chloro-benzyl)-4-dimethylamino-cyclohexylcarbamoyl]-propionylamino}-benzyl)-phosphonic acid diethylester], the inhibition at 10 µM at 5HT-uptake worked out at 95%; on NA-uptake, 100%.
On to `CN(C)C1(Cc2cccc(Cl)c2)CCC(NC(=O)CCC(=O)NCc2ccccn2)CC1` (stereo not drawn) [Example 73, N-[4-(3-chloro-benzyl)-4-dimethylamino-cyclohexyl]-N′-pyridin-2-ylmethyl-succinamide], for which the figures for the inhibition at 10 µM at 5HT-uptake and at NA-uptake were 93% and 87%, respectively.
`CN(CC(=O)OC(C)(C)C)C(=O)CCCC(=O)NC1CCC(Cc2ccccc2)(N(C)C)CC1` (stereo not drawn) [Example 24, {[4-(4-benzyl-4-dimethylamino-cyclohexylcarbamoyl)-butyryl]-methyl-amino}-acetic acid tert butyl ester]: the figures for the inhibition at 10 µM at 5HT-uptake and on NA-uptake were 92% and 91%, respectively.

(Values after patent US8088763B2 (priority 2004, dated 2012).)
